In brackets after ≈: the same amount, converted by molar mass.
Experiments:
Aspergillus flavus MF383 = experiment: antifungal MIC, microtiter dilution assay, filamentous fungi; format: cell-based; settings: 42 hours, 28° C., read-out: Minimum Inhibitory Concentration
Method: (§1) The compounds are particularly active towards filamentous fungi and yeasts including Candida albicans and Cryptococcus neoformans. The sensitivity of filamentous fungi and yeast was determined using inhibitor dilution assays in microtiter format. The compounds were dissolved in DMSO at 2 mg/ml and serially diluted in 0.1M phosphate buffer, pH 7.0 in the microtiter dish from 100 to 0.006 μg/ml. A standardized spore suspension for testing the filamentous fungi was prepared by inoculating Antibiotic Medium #3 containing 1.5% agar with spores such that 1.5×10^3 colony forming units were added per well. The microtiter wells were filled with 50 μl of buffer containing compound and 50 μl of inoculated medium.
(§2) The sensitivity of yeasts was determined by inoculating yeast nitrogen base containing 1% dextrose (YNB/G) with aliquots of an overnight yeast culture grown in Yeast Morphology (YM) media at 35° C. and diluting in YNB/G to yield a final concentration of 1.5-7.5×10^3 colony forming units/well. To test the sensitivity of yeast, compound was solubilized in 10 percent aqueous DMSO at 2.56 mg/ml. The compound was diluted serially in YNB/G from 128 to 0.06 μg/ml and further diluted 1:10 in YNB/G. The wells were filled with 150 μl of media containing drug. […]

A. nidulans R21 = experiment: as above; format: cell-based; settings: Aspergillus nidulans, 42 hours, 28° C., read-out: Minimum Inhibitory Concentration
Method: as §1, §2

Squalene Synthetase = molecular target: T1, Squalene Synthetase (Rattus norvegicus, UniProt Q02769); experiment: Squalene Synthetase Assay (intrinsic squalene synthetase inhibitory activity); format: biochemical; settings: rat liver microsomes, [4-14C]farnesyl-pyrophosphate, 30° C., 20 minutes
T1 construct: from tissue; host or cells: liver microsomes of male Charles River CD rats fed 0.1% lovastatin
T1 sequence (Q02769 1-416): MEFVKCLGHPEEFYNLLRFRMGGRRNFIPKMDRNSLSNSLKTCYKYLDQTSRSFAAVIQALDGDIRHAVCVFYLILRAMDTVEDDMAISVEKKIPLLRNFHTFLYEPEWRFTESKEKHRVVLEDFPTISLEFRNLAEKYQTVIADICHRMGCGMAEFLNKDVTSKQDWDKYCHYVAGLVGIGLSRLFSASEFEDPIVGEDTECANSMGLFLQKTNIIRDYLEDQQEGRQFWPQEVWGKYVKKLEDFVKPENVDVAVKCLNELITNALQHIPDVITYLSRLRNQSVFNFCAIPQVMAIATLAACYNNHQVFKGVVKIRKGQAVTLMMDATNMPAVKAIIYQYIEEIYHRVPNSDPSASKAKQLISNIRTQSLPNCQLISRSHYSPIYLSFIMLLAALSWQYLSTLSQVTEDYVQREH
Method: The intrinsic squalene synthetase inhibitory activity of representative compounds of this invention was measured by the standard in vitro protocol described below:
Male, Charles River CD rats (120 to 150 g) were fed a diet containing 0.1% lovastatin for 4 days. The livers from these rats were homogenized in 5 volumes (ml/g) of ice cold 50 mM HEPES (4-(2-hydroxyethyl)-1-piperazine-ethanesulfonic acid), 5 mM EDTA(ethylenediaminetetraacetic acid) pH 7.5 with a Potter-Elvehjem type tissue grinder. The homogenate was centrifuged twice at 20,000×g for 15 minutes at 4° C., discarding the pellet each time. The supernatant was then centrifuged at 100,000×g for 1 hour at 4° C. The resulting microsomal pellet was resuspended in a volume of the above homogenizing buffer equal to one-fifth the volume of the original homogenate. This microsomal preparation has a protein concentration of about 7 mg/ml. The microsomal suspensions were stored in aliquots at -70° C. Squalene synthetase activity in these aliquots is stable for at least several months.
Prenyl transferase was purified to use in the enzymatic synthesis of radiolabelled farnesyl pyrophosphate. Prenyl transferase was assayed by the method of Rilling (Methods in Enzymology 110, 125-129 (1985)) and a unit of activity is defined as the amount of enzyme that will produce 1 μ mole of farnesyl pyrophosphate per minute at 30° C. in the standard assay. […]

Crypt. neoformans MY1051 = experiment: antifungal MIC, microtiter dilution assay, yeast; format: cell-based; settings: Cryptococcus neoformans, YNB/G, 24 to 48 hours, 35° C., read-out: Minimum Inhibitory Concentration
Method: as §1
(§3) The sensitivity of yeasts was determined by inoculating yeast nitrogen base containing 1% dextrose (YNB/G) with aliquots of an overnight yeast culture grown in Yeast Morphology (YM) media at 35° C. and diluting in YNB/G to yield a final concentration of 1.5-7.5×10^3 colony forming units/well. To test the sensitivity of yeast, compound was solubilized in 10 percent aqueous DMSO at 2.56 mg/ml. The compound was diluted serially in YNB/G from 128 to 0.06 μg/ml and further diluted 1:10 in YNB/G. The wells were filled with 150 μl of media containing drug. The minimum inhibitory concentration (MIC) is defined as the lowest concentration to prevent growth after an incubation for 42 hours, at 28° C. for the filamentous fungi and 24 to 48 hours, at 35° C. for the yeasts. Representative of the antifungal activity are the minimum inhibitory concentration data shown below.

C. parapsilosis MY1010 = experiment: antifungal MIC, microtiter dilution assay, yeast; format: cell-based; settings: Lodderomyces parapsilosis, YNB/G, 24 to 48 hours, 35° C., read-out: Minimum Inhibitory Concentration
Method: as §1, §3

C. tropicalis MY1012 = experiment: antifungal MIC, microtiter dilution assay, yeast; format: cell-based; settings: Candida tropicalis, YNB/G, 24 to 48 hours, 35° C., read-out: Minimum Inhibitory Concentration
Method: as §1, §3

Candida albicans MY1055 = experiment: antifungal MIC, microtiter dilution assay, yeast; format: cell-based; settings: YNB/G, 24 to 48 hours, 35° C., read-out: Minimum Inhibitory Concentration
Method: as §1, §3

With `CC(=O)OC(CCCC12OC(C(=O)O)C(O)(C(=O)O)C(C(=O)O)(O1)C(OC(=O)CCC=CC(C)CCCc1ccccc1)C2O)C(C)Cc1ccccc1` (stereo not shown) [Compound A] the MIC (Aspergillus flavus MF383) was 1.5 µg/mL (≈ 1.99 µM), the MIC (A. nidulans R21) was 1.5 µg/mL (≈ 1.99 µM) and the IC50 (Squalene Synthetase) was 9 nM. For the same compound, the MIC (Crypt. neoformans MY1051) was 1 µg/mL (≈ 1.32 µM), the MIC (C. parapsilosis MY1010) was 8 µg/mL (≈ 10.6 µM) and the MIC (C. tropicalis MY1012) was 8 µg/mL (≈ 10.6 µM). It also gave an MIC (Candida albicans MY1055) of 16 µg/mL (≈ 21.2 µM).

— patent US5026554A, “Method of inhibiting fungal growth using squalene synthetase inhibitors” (Merck & Co., Inc., priority 1990, dated 1991)
